Assays:
Type in all cases: in vivo
[1] = tested on: barnyardgrass (Echinochloa crus-galli); experiment: Test A greenhouse herbicide test, pre- and postemergence
Source text: (§1) Seeds of plant species selected from barnyardgrass (Echinochloa crus-galli), kochia (Kochia scoparia), ragweed (common ragweed, Ambrosia elatior), ryegrass, Italian (Italian ryegrass, Lolium multiflorum), crabgrass, large (large crabgrass, Digitaria sanguinalis), foxtail, giant (giant foxtail, Setaria faberii), momingglory (Ipomoea spp.), pigweed (Amaranthus retroflexus), velvetleaf (Abutilon theophrasti), wheat (Triticum aestivum), and corn (Zea mays) were planted into a blend of loam soil and sand and treated preemergence with a directed soil spray using test chemicals formulated in a non-phytotoxic solvent mixture which included a surfactant.
(§2) At the same time, plants selected from these crop and weed species and also blackgrass (Alopecurus myosuroides), and galium (catchweed bedstraw, Galium aparine) were planted in pots containing the same blend of loam soil and sand and treated with postemergence applications of test chemicals formulated in the same manner. Plants ranged in height from 2 to 10 cm and were in the one- to two-leaf stage for the postemergence treatment. Treated plants and untreated controls were maintained in a greenhouse for approximately 10 d, after which time all treated plants were compared to untreated controls and visually evaluated for injury. Plant response ratings, summarized in Table A, are based on a 0 to 100 scale where 0 is no effect and 100 is complete control. A dash (-) response means no test result.

corn (Zea mays) = experiment: as above; conditions: Postemergence; for Plant response rating, Corn: 125 g ai/ha; for Corn plant response rating: 500 g ai/ha, 0 to 100 scale, 0 is no effect, 100 is complete control
Source text: as §1, §2

[2] = tested on: foxtail, giant (giant foxtail, Setaria faberii); experiment: as above
Source text: as §1, §2

kochia (Kochia scoparia) = experiment: as above
Source text: as §1, §2

[3] = tested on: pigweed (Amaranthus retroflexus); experiment: as above
Source text: as §1, §2

[4] = tested on: ragweed (common ragweed, Ambrosia elatior); experiment: as above
Source text: as §1, §2

[5] = tested on: ryegrass, Italian (Italian ryegrass, Lolium multiflorum); experiment: as above
Source text: as §1, §2

[6] = tested on: wheat (Triticum aestivum); experiment: as above; conditions: Postemergence; for Plant response rating, Wheat: 125 g ai/ha, 0 to 100 scale where 0 is no effect and 100 is complete control; for Wheat plant response rating: 500 g ai/ha, 0 to 100 scale, 0 is no effect, 100 is complete control
Source text: as §1, §2

[7] = tested on: blackgrass (Alopecurus myosuroides); experiment: Test A greenhouse herbicide test, postemergence; conditions: for Plant response rating, Blackgrass: 125 g ai/ha; for Blackgrass plant response rating: 500 g ai/ha, 0 to 100 scale, 0 is no effect, 100 is complete control
Source text: as §2

[8] = tested on: galium (catchweed bedstraw, Galium aparine); experiment: Test A greenhouse herbicide test, postemergence; conditions: for Plant response rating, Galium: 125 g ai/ha; for Galium plant response rating: 500 g ai/ha, 0 to 100 scale, 0 is no effect, 100 is complete control
Source text: as §2

[9] = Postemergence, 125 g ai/ha, visual rating after approx. 10 d, 0 to 100 scale (0 no effect, 100 complete control)
[10] = Postemergence, 500 g ai/ha, 0 to 100 scale, 0 is no effect, 100 is complete control
[11] = Preemergence, 125 g ai/ha, 0 to 100 scale where 0 is no effect and 100 is complete control
[12] = Preemergence, 500 g ai/ha, 0 to 100 scale, 0 no effect, 100 complete control
[13] = visual rating after approx. 10 d, 0 to 100 scale (0 no effect, 100 complete control)
[14] = Postemergence, 125 g ai/ha, 0 to 100 scale where 0 is no effect and 100 is complete control
[15] = 0 to 100 scale where 0 is no effect and 100 is complete control
[16] = Preemergence, 500 g ai/ha, 0 to 100 scale where 0 is no effect and 100 is complete control

Structure (SMILES)	Barnyardgrass plant response rating [1, 10]	Barnyardgrass plant response rating [1, 11]	Plant response rating, Barnyardgrass [1, 12]	Corn plant response rating (corn (Zea mays))	Foxtail, Giant plant response rating [2, 10]	Foxtail, Giant plant response rating [2, 11]	Plant response rating, Foxtail, Giant [2, 12]	Kochia plant response rating (kochia (Kochia scoparia); [10])	Kochia plant response rating (kochia (Kochia scoparia); [11])	Pigweed plant response rating [3, 10]	Pigweed plant response rating [3, 11]	Ragweed plant response rating [4, 10]	Ragweed plant response rating [4, 11]	Plant response rating, Ryegrass, Italian [5, 14]	Ryegrass, Italian plant response rating [5, 10]	Ryegrass, Italian plant response rating [5, 11]	Plant response rating, Wheat [6]	Wheat plant response rating [6]	Blackgrass plant response rating [7]	Galium plant response rating [8]	further results
COc1nn(C)c(=O)c(-c2c(C)ccc3ccc(C)cc23)c1O [Compound 30]	30	0	10	0	60	0	60	80	0	90	80	70	0	70	60	30	10	10	60	90	Plant response rating, Barnyardgrass [1, 9]: 0; Plant response rating, Corn (corn (Zea mays); [13]): 0; Plant response rating, Foxtail, Giant [2, 9]: 0; Plant response rating, Kochia (kochia (Kochia scoparia); [9]): 60; Plant response rating, Kochia (kochia (Kochia scoparia); [12]): 40; Plant response rating, Pigweed [3, 9]: 90; Plant response rating, Pigweed [3, 12]: 90; Plant response rating, Ragweed [4, 9]: 40; Plant response rating, Ragweed [4, 12]: 70; Plant response rating, Ryegrass, Italian [5, 12]: 50; Plant response rating, Blackgrass [7, 13]: 20; Plant response rating, Galium [8, 13]: 70
Cc1ccc2oc(C)c(-c3c(O)c(-c4ccccc4)nn(C)c3=O)c2c1 [Compound 61]	0	0	0	0	0	0	0	0	0	0	0	0	0	0	0	0	0	0	0	0	Plant response rating, Barnyardgrass [1, 14]: 0; Plant response rating, Corn (corn (Zea mays); [15]): 0; Plant response rating, Foxtail, Giant [2, 14]: 0; Plant response rating, Kochia (kochia (Kochia scoparia); [14]): 0; Plant response rating, Kochia (kochia (Kochia scoparia); [12]): 0; Plant response rating, Pigweed [3, 14]: 0; Plant response rating, Pigweed [3, 12]: 0; Plant response rating, Ragweed [4, 14]: 0; Plant response rating, Ragweed [4, 12]: 0; Plant response rating, Ryegrass, Italian [5, 12]: 0; Plant response rating, Blackgrass [7, 15]: 0; Plant response rating, Galium [8, 15]: 0
Cc1nn(C)c(=O)c(-c2cccc3ccc(C4CC4)cc23)c1O [Compound 71]	20	0	20	20	20	0		70	0	80	30	70	0	30	90	0	0	20	40	90	Plant response rating, Barnyardgrass [1, 14]: 0; Plant response rating, Corn (corn (Zea mays); [15]): 0; Plant response rating, Foxtail, Giant [2, 14]: 0; Plant response rating, Foxtail, Giant [2, 16]: 50; Plant response rating, Kochia (kochia (Kochia scoparia); [14]): 50; Plant response rating, Kochia (kochia (Kochia scoparia); [16]): 20; Plant response rating, Pigweed [3, 14]: 70; Plant response rating, Pigweed [3, 16]: 100; Plant response rating, Ragweed [4, 14]: 70; Plant response rating, Ragweed [4, 16]: 20; Plant response rating, Ryegrass, Italian [5, 16]: 70; Plant response rating, Blackgrass [7, 15]: 30; Plant response rating, Galium [8, 15]: 70
CCc1ccc2ccccc2c1-c1c(OC(=O)C2CC2)c(C)nn(C)c1=O [Compound 38]	40	0	10	10	50	0	40	80	40	50	0	70	0	0	50	40	10	20	60	100	Plant response rating, Barnyardgrass [1, 9]: 0; Plant response rating, Corn (corn (Zea mays); [13]): 0; Plant response rating, Foxtail, Giant [2, 9]: 0; Plant response rating, Kochia (kochia (Kochia scoparia); [9]): 30; Plant response rating, Kochia (kochia (Kochia scoparia); [12]): 40; Plant response rating, Pigweed [3, 9]: 50; Plant response rating, Pigweed [3, 12]: 80; Plant response rating, Ragweed [4, 9]: 40; Plant response rating, Ragweed [4, 12]: 70; Plant response rating, Ryegrass, Italian [5, 12]: 70; Plant response rating, Blackgrass [7, 13]: 50; Plant response rating, Galium [8, 13]: 80

Source: patent publication US10597388B2, “Pyridazinone herbicides” (FMC CORPORATION, priority 2014, dated 2020)
